Measured values published in patent publication US20240124485A1, “SUBSTITUTED AMIDE MACROCYCLIC COMPOUNDS WITH OREXIN-2 RECEPTOR AGONIST ACTIVITY” (Alkermes, Inc., priority 2021, published 2024).
pEC50: −log10 of the molar value.

Biological target: T1, human orexin-2 receptor (OX2R) (Homo sapiens, UniProt O43614)
T1 construct: expressed in transfected cells
T1 sequence (O43614 1-444): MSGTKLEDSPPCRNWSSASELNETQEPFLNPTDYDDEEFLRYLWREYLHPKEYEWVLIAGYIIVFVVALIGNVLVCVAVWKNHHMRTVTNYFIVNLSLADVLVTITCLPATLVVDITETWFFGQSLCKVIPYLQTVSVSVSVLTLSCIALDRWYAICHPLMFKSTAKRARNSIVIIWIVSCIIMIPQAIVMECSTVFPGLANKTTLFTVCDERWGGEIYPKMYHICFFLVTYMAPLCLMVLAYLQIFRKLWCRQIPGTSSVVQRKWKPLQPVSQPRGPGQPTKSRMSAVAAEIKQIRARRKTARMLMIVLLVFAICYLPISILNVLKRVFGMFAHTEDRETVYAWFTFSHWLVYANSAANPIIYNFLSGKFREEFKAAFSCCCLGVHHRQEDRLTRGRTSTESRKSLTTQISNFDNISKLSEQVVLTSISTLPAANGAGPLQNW
Experiment: Human OX2R IP1 assay
Type: cell-based
Conditions: T-Rex CHO cells stably overexpressing the human orexin-2 receptor; IP1 accumulation, 1 hr at 37 degrees C
Procedure: T-Rex CHO cells stably overexpressing the human orexin-2 receptor (OX2R) were induced overnight with 1 μg/mL of doxycycline in a T225 flask. 24 hours post induction, cells were lifted with accutase and plated into a 384-well proxy plate at 30,000 cells/well. Cells were then treated with different test compounds in 1× stimulation buffer containing 10 mM Hepes, 1 mM CaCl2), 0.5 mM MgCl2, 4.2 mM KCl, 146 mM NaCl, 5.5 mM glucose, and 50 mM LiCl, pH 7.4, for 1 hr at 37 degrees C. Following incubation, the reaction was terminated by the addition of detection mix, which is composed of IP1-d2 and anti-IP1-cryptate diluted in lysis buffer as well as 1× stimulation buffer. The plates were allowed to incubate for 1 hour at room temperature and were then read in the ENVISION® multimode plate reader, measuring inositol phosphate levels.
Cisbio IP1 is a cell-based functional assay quantifying the accumulation of inositol monophosphate (IP), a metabolite released as a result of orexin 2 receptor activation through the phospholipase C-Gq signaling pathway. This is a competitive immunoassay in which the IP1 produced by the cells upon receptor activation competes with the IP1 analog coupled to the d2 fluorophore (acceptor) for binding to an anti-IP1 monoclonal antibody labeled with Eucryptate (donor). The measured HTRF-FRET based signal is inversely proportional to the IP1 concentration produced.
The EC50 values reported in Table 2 were obtained according to the human OX2R IP1 assay described above. Data are the mean EC50 values ±S.E.M.

Row | pEC50 | Structure (SMILES)
1 | > 7.00 | O=C(N[C@H]1CCCN2C(=O)COc3ccccc3C3CCC(CC3)OC[C@@H]12)C1COCCO1 (stereo in doubt) [Compound 1]
2 | > 7.00 | COCC(=O)N[C@H]1CCCN2C(=O)COc3ccccc3[C@H]3CC[C@H](CC3)OC[C@@H]12 (stereo in doubt) [Compound 3]
3 | 6.00 to 7.00 | O=C(N[C@H]1CCCN2C(=O)COc3ccccc3C3CCC(CC3)OC[C@@H]12)C1CCCOC1 (stereo in doubt) [Compound 4]
4 | 6.00 to 7.00 | O=C(N[C@H]1CCCN2C(=O)COc3ccccc3C3CCC(CC3)OC[C@@H]12)C1CCOC1 (stereo in doubt) [Compound 6]
5 | 6.00 to 7.00 | O=C(N[C@H]1CCCN2C(=O)COc3ccccc3C3CCC(CC3)OC[C@@H]12)C1COCCO1 (stereo in doubt) [Compound 8]
6 | 6.00 to 7.00 | O=C(N[C@H]1CCCN2C(=O)COc3ccccc3C3CCC(CC3)OC[C@@H]12)C1CCCOC1 (stereo in doubt) [Compound 11]
7 | > 7.00 | O=C(N[C@H]1CCCN2C(=O)COc3ccccc3C3CCC(CC3)OC[C@@H]12)C1CCO1 (stereo in doubt) [Compound 12]
8 | > 7.00 | CN(C)C(=O)C(=O)N[C@H]1CCCN2C(=O)COc3ccccc3[C@H]3CC[C@H](CC3)OC[C@@H]12 [Compound 7]
9 | > 7.00 | Cc1ccnc2c1C1CCC(CC1)OCC1[C@@H](NC(=O)C3CCCO3)CCCN1C(=O)CO2 (some centres unmarked) [Compound 17]
10 | < 6.00 | O=C(N[C@H]1CCCN2C(=O)COc3ccccc3[C@H]3CC[C@H](CC3)OC[C@@H]12)c1ncco1 [Compound 18]
11 | < 6.00 | O=C(N[C@H]1CCCN2C(=O)COc3ccccc3C3CCC(CC3)OCC12)C1CCCCO1 (some centres unmarked) [Compound 20]

Continued, molecule first:

Row | Structure (SMILES) | pEC50
12 | O=C(N[C@H]1CCCN2C(=O)COc3ccccc3C3CCC(CC3)OC[C@@H]12)C1CCCCO1 (stereo in doubt) [Compound 2] | > 7.00
13 | O=C(N[C@H]1CCCN2C(=O)COc3ccccc3C3CCC(CC3)OC[C@@H]12)C1CCOC1 (stereo in doubt) [Compound 5] | 6.00 to 7.00
14 | O=C(N[C@H]1CCCN2C(=O)COc3ccccc3C3CCC(CC3)OC[C@@H]12)C1CCO1 (stereo in doubt) [Compound 9] | 6.00 to 7.00
15 | O=C(N[C@H]1CCCN2C(=O)COc3ccccc3C3CCC(CC3)OC[C@@H]12)C1CCCO1 (stereo in doubt) [Compound 10] | > 7.00
16 | Cc1ccnc2c1C1CCC(CC1)OC[C@H]1[C@@H](NC(=O)C3CCCO3)CCCN1C(=O)CO2 (stereo in doubt) [Compound 13] | > 7.00
17 | Cc1cccc2c1C1CCC(CC1)OC[C@H]1[C@@H](NC(=O)C3CCCO3)CCCN1C(=O)CO2 (stereo in doubt) [Compound 14] | > 7.00
18 | Cc1cccc2c1C1CCC(CC1)OCC1[C@@H](NC(=O)C3CCCO3)CCCN1C(=O)CO2 (some centres unmarked) [Compound 15] | > 7.00
19 | O=C(N[C@H]1CCCN2C(=O)COc3ccccc3[C@H]3CC[C@H](CC3)OC[C@@H]12)C1COC1 [Compound 16] | > 7.00
20 | CN1CCC1C(=O)N[C@H]1CCCN2C(=O)COc3ccccc3C3CCC(CC3)OCC12 (some centres unmarked) [Compound 19] | < 6.00
21 | CN1CCOC(C(=O)N[C@H]2CCCN3C(=O)COc4ccccc4C4CCC(CC4)OCC23)C1 (some centres unmarked) [Compound 21] | < 6.00
22 | CN1CCCC1C(=O)N[C@H]1CCCN2C(=O)COc3ccccc3C3CCC(CC3)OCC12 (some centres unmarked) [Compound 22] | < 6.00
23 | CN1CCC1C(=O)N[C@H]1CCCN2C(=O)COc3ccccc3C3CCC(CC3)OCC12 (some centres unmarked) [Compound 23] | < 6.00
24 | CN1CCCC1C(=O)N[C@H]1CCCN2C(=O)COc3ccccc3C3CCC(CC3)OCC12 (some centres unmarked) [Compound 24] | < 6.00
25 | CN1CCOC(C(=O)N[C@H]2CCCN3C(=O)COc4ccccc4C4CCC(CC4)OCC23)C1 (some centres unmarked) [Compound 25] | < 6.00
26 | COC1(C(=O)N[C@H]2CCCN3C(=O)COc4ccccc4[C@H]4CC[C@H](CC4)OC[C@@H]23)CC1 [Compound 89] | < 6.00
